Source: patent EP1263420B1 (priority 2000, dated 2001)

Assays:
[1] = Body weight, mortality and toxicity of A/J mice exposed to isotretinoin aerosols; format: in vivo
Protocol: Mice were injected with one of three carcinogens and were exposed by inhalation in groups of 21 to three graded concentrations of isotretinoin or vehicle for 10 (urethane-treated mice) or 16 (NNK- and BaP-treated mice) weeks.
Male A/J mice (Jackson Laboratories) 6-8 weeks old were quarantined a minimum of 7 days. […] At 9-10 weeks of age, the mice were administered single 0.2 ml doses (20 mg urethane in saline, 0.6 mg of NNK in saline, or 2 mg of BaP in tricaprylin) by intraperitoneal injection. Daily 45-min exposures to isotretinoin aerosol or vehicle were started the next day.
Solutions were aerosolized using a Pari LC-plus nebulizer (Pari, Richmond, VA). Animals were exposed in nose-only exposure units designed to provide a fresh supply of the test atmosphere to each animal, independent from other animals. […] The units consisted of multi-tier modular sections, each tier containing eight exposure ports located peripherally around a central delivery plenum. During exposures, animals were restrained in unstoppered polycarbonate tubes (C&H Technologies, Westwood, NJ) through which a flow of aerosol, 350-500 ml/min per mouse, passed from the chamber. The tubes were tapered on one end to approximately fit the shape of the animal's head and the diameter of the cylindrical portion of the cone was such that the animals could not turn in the cones. Each cone was fastened to the inhalation chamber with the nose portion of the cone protruding through a gasket into the chamber, permitting the animal to breathe the test or control atmosphere emanating from within the central plenum.

RAR α = assay: Western blot of rat lung tissue after inhaled 13-cis RA; format: in vivo; conditions: for upregulating expression of lung tissue RAR (α): daily deposited dose of 6.4mg/kg/day
Protocol: (§1) Rats (n=97) (Sprague-Dawley from Charles River) were divided into five experimental groups and were given varying amounts of 13-cis RA by inhalation. The experimental groups were as follows (Table 4) :1.Vehicle (10/9 mix of PEG 300 and Ethanol with 0.5% of ascorbic acid and 0.5% phosphatidyl choline) control, day 1: rats (19) inhaled vehicle for 2 hr for one day; 2. High dose 13-cis RA, day 1: rats (22) inhaled a solution containing 13-cis-RA at a concentration of 104µg/liter (projected daily inhaled dose 10mg/kg body weight) for 2 hr for one day; 3. High dose 13-cis RA, day 17: rats (22) inhaled the same solution as in 2 for 2 hr each day for 17 days; 4. Vehicle control, day 28: rats (16) inhaled vehicle as for group 1 for a period of 28 days; 5. Middle dose 13-cis RA, day 28: rats (18) inhaled a solution containing 13-cis-RA at a concentration of 31µg/liter (projected daily inhaled dose 3mg/kg body weight) for 2 hr for each of 28 days.
(§2) Male rats (n=23) (Sprague-Dawley from Charles River) were divided into six experimental groups and were given varying amounts of 13-cis RA through an inhalant apparatus once daily for different times each day for 14 days. The experimental groups were as follows (Table 1) :1.Vehicle control : rats (3) inhaled vehicle for 240 minutes; 2. Low dose 13-cis RA: rats (4) inhaled a solution containing 13-cis RA at a concentration of 62.2µg/liter (inhaled dose 115.0µg/kg body weight) in 5 minutes; 3. Low-Middle dose 13-cis RA : rats (4) inhaled a solution containing 13-cis RA at a concentration of 62.2µg/liter (inhaled dose 334.4µg/kg body weight) in 15 minutes; 4.Middle dose 13-cis RA: rats (4) inhaled a solution containing 13-cis RA at a concentration of 62.2µg/liter (inhaled dose 1012.3µg/kg body weight) in 45 minutes; 5. Middle-High dose 13-cis RA : rats (4) inhaled a solution containing 13-cis RA at a concentration of 62.2µg/liter (inhaled dose 2843.4µg/kg body weight) in 120 minutes; 6. High dose 13-cis RA : rats (4) inhaled a solution containing 13-cis RA at a concentration of 62.2µg/liter (inhaled dose 5935.6µg/kg body weight) in 240 minutes.
(§3) Polyclonal rabbit anti-mouse antibodies against RAR, and (SANTA CRUZ Biotechnology Inc., San Francisco, CA) were used. BM Chemiluminescense Western Blotting Kit (Mouse/Rabbit) was used (Boehringer Mannheim Corporation, Indianapolis) for the Westerns.
(§4) Tissues were collected, frozen in dry ice and kept at -70°C until used. 500mg aliquots were diced in small pieces and homogenized in 300µl of cold PBS, using the hand held homogenizer for 2~3 minutes. Sample and washes were centrifuged at 5000xg for 20 minutes. The pellet was suspended in 400 µl of ice-cold Buffer A [2µl 0.5M EDTA, 10µl 100mM EGTA, 50µl 100mM PMSF, 10µl 1M DTT, 10ml (10mM HEPES pH 7.9 + 10mM KCl)], and left at ice temperature for 15 minutes. 25 µl of 10% solution of NP-40 was added and samples were mixed in a vortex vigorously for 10 seconds. Samples were centrifuged at 14,000xg for 1 minute at 4°C and the pellet treated once more in this fashion (resuspended etc.). The supernatant was removed and 100µl of ice-cold Buffer C [4µl 0.5M EDTA, 20µl 100mM EGTA, 20µl 100mM PMSF, 2µl 1 M DTT, 2ml (20mM HEPES pH 7.9 + 0.4M NaCl)] was added. Pellets were resuspended by tapping gently on the bottom of the Eppendorf tubes. Samples were rocked vigorously in a bucket of ice on an orbital shaker for 30 minutes. Samples were centrifuged at 14,000 xg for 5 minutes at 4°C. Protein determination of supernatant was conducted by the Bradford method.
(§5) Samples were prepared by adding one part of the Sample Buffer to one part of the sample and mixing well. Samples were heated at 95°C for 5 minutes to induce denaturation. 5µl of Rainbow Standard and 5µl ofBiotinylated Molecular Marker were added to parallel wells. 20µg protein per sample was loaded in each lane. Electrophoresis was performed with voltage set at 125V for about 1 ~ 1.5 hours. Gel transfer was executed at 25V for 2 hours. […]

RAR β = assay: as above; format: in vivo; conditions: for upregulating expression of lung tissue RAR (β): daily deposited dose of 6.4mg/kg/day
Protocol: as §1, §2, §3, §4, §5

RAR γ = assay: as above; format: in vivo; conditions: for upregulating expression of lung tissue RAR (γ): daily deposited dose of 6.4mg/kg/day
Protocol: as §1, §2, §3, §4, §5

lung metaplasia = conditions: Oral doses of I mg/kg, smokers; cited from earlier work
[2] = daily deposited dose of 1.9mg/kg/day, day 28

CC1=C(/C=C/C(C)=C/C=C/C(C)=C\C(=O)O)C(C)(C)CCC1 [13-cis RA, 13-cis-Retinoic Acid]
tolerated until (mice began losing weight) ([1]; mid dose): ~ 12 wks
weights below those of vehicle controls ([1]; mid dose, NNK- and BaP-treated mice, end of exposure): 11%
mortality ([1]; mouse, in vivo, inhaled or intranasal, 0.081 mg/kg, mid dose (2/63), read-out: mice died before the end of exposure): 3%
mortality at 336 h ([1]; mouse, in vivo, inhaled or intranasal, 2 mg/kg, high dose, daily exposures for the first two weeks, read-out: mice died): ~35%
lung RAR (α) induced (RAR α; [2]): 4.7 fold
upregulating expression of lung tissue RAR (α) (RAR α; day 1): 3.4 fold
upregulating expression of lung tissue RAR (α) (RAR α; day 17): 4.2 fold
lung RAR (β) induced (RAR β; [2]): 8.0 fold
upregulating expression of lung tissue RAR (β) (RAR β; day 1): 7.2 fold
upregulating expression of lung tissue RAR (β) (RAR β; day 17): 10.0 fold
lung RAR (γ) induced (RAR γ; [2]): 8.1 fold
upregulating expression of lung tissue RAR (γ) (RAR γ; day 1): 9.7 fold
upregulating expression of lung tissue RAR (γ) (RAR γ; day 17): 12.9 fold
reversal of lung metaplasia (lung metaplasia): failed even to reverse lung metaplasia
